# According to patent US20100144626A1, “Treatment of Multi-Drug Resistant Bacterial Infections” (priority 2006, published 2010):
# “Also recorded” adds a separate entry of the source. Where two headings read alike, the source gives them in different places.
# Columns and labels:
# [1] = tested on: strains of Staphylococci and Enterococci with reduced susceptibility to vancomycin; test: Growth inhibition, summary of MIC testing; format: cell-based; settings: summary in words
# Experimental: (§1) In example experiments miconazole nitrate, was dissolved in methanol and econazole nitrate and clotrimazole were dissolved in DMSO and methanol respectively. Other solvents that may be used include caster oil, pyridine, DMSO and 0.9% saline. For IV administration agents may be solubilised in polyethoxylated caster oil, or cyclodextrins such as sulfobutylether7-βcyclodextrin or hydroxypropyl-β-cyclodextrin and lactic acid. Minimum inhibitory concentrations (MICs) of a range of clinical and control bacterial organisms were measured according to BSAC (British Society for Antimicrobial Chemotherapy) guidelines, described briefly as follows;
# (§2) Stock solutions were prepared at concentrations of 1000 mg/L and 100 mg/L. The appropriate amounts of each stock solution were added to separate Petri dishes give the following final concentrations (after the addition of 20 mL molten agar): 128, 64, 32, 16, 8, 4, 2, 1, 0.5, 0.25, 0.12, 0.06, 0.03, 0.015 mg/L.
# (§3) The test organisms were grown overnight in 5 mL IST broth. Using a dilution in 0.9% saline of 1:500 for Gram-negative organisms and 1:100 for Gram-positive organisms, the appropriate agar plates were inoculated using a multipoint inoculator.
# (§4) Plates were incubated at 37° C. in air for 18-20 hours.
# (§5) The MIC is the minimum amount of an antibiotic at which there is no visible growth of bacteria. Tiny single colonies or faint hazes were not counted as growth.
# Gram-negative organisms = test: Growth inhibition, summary of MIC testing; format: cell-based; settings: summary in words
# Experimental: as §1, §2, §3, §4, §5
# [2] = in vivo; cited from earlier work
# [3] = tested on: Enterococcus faecalis (VRE) E8 VanA; test: MIC, agar dilution (BSAC guidelines); format: cell-based; settings: E. faecalis (VRE) E8 VanA
# Experimental: as §1
# (§6) Preparation of Agar Plates and Broths
# (§7) Stock solutions of each agent were prepared using the formula:
# (§8) Where P=μg of active compound per mg (μg/mg) • V=volume required (mL) • C=final concentration of solution (mg/L) • W=weight of agent (mg) to be dissolved in volume V (mL)
# as §2
# (§9) Volumes (20 mL) of cooled molten IST agar (oxoid) was added to each Petri dish and mixed by swirling.
# (§10) After drying, the plates were stored at 4° C. and protected from light. Plates were used on the day of preparation.
# as §3, §4, §5
# [4] = tested on: VISA, strain USA/VISA 5827; test: MIC, agar dilution (BSAC guidelines); format: cell-based; settings: Staphylococcus aureus
# Experimental: as §1, §6, §7, §8, §2, §9, §10, §3, §4, §5
# [5] = tested on: Klebsiella pneumoniae ESBL 700603; test: MIC, agar dilution (BSAC guidelines); format: cell-based
# Experimental: as §1, §6, §7, §8, §2, §9, §10, §3, §4, §5
# [6] = tested on: Staphylococcus epidermidis ATCC 1228; test: MIC, agar dilution (BSAC guidelines); format: cell-based
# Experimental: as §1, §6, §7, §8, §2, §9, §10, §3, §4, §5
# [7] = tested on: Pseudomonas aeruginosa NCTC 10662; test: MIC, agar dilution (BSAC guidelines); format: cell-based
# Experimental: as §1, §6, §7, §8, §2, §9, §10, §3, §4, §5
# [8] = tested on: Escherichia coli NCTC 10418; test: MIC, agar dilution (BSAC guidelines); format: cell-based
# Experimental: as §1, §6, §7, §8, §2, §9, §10, §3, §4, §5
# [9] = tested on: VISA, strain VISA 3900 UK; test: MIC, agar dilution (BSAC guidelines); format: cell-based; settings: Staphylococcus aureus
# Experimental: as §1, §6, §7, §8, §2, §9, §10, §3, §4, §5
# [10] = tested on: Enterococcus faecium (VRE) VanR B145344C LFE; test: MIC, agar dilution (BSAC guidelines); format: cell-based; settings: E. faecium (VRE) VanR B145344C LFE
# Experimental: as §1, §6, §7, §8, §2, §9, §10, §3, §4, §5
# [11] = tested on: Enterococcus faecium (VRE) NCTC 7171; test: MIC, agar dilution (BSAC guidelines); format: cell-based
# Experimental: as §1, §6, §7, §8, §2, §9, §10, §3, §4, §5
# [12] = tested on: Enterococcus faecium (VRE) E15 VanA ATCC 4147; test: MIC, agar dilution (BSAC guidelines); format: cell-based
# Experimental: as §1, §6, §7, §8, §2, §9, §10, §3, §4, §5
# [13] = tested on: Enterococcus gallinarum (VRE) E1 NCTC 12359 VanC1; test: MIC, agar dilution (BSAC guidelines); format: cell-based
# Experimental: as §1, §6, §7, §8, §2, §9, §10, §3, §4, §5
# [14] = tested on: Enterococcus faecium (VRE) E19 UAA/522 VanB; test: MIC, agar dilution (BSAC guidelines); format: cell-based; settings: E. faecium (VRE) E19 UAA/522 VanB
# Experimental: as §1, §6, §7, §8, §2, §9, §10, §3, §4, §5
# [15] = tested on: Acinetobacter Baumannii ATCC 19606; test: MIC, agar dilution (BSAC guidelines); format: cell-based
# Experimental: as §1, §6, §7, §8, §2, §9, §10, §3, §4, §5
# [16] = tested on: VISA, strain USA/VISA 5836; test: MIC, agar dilution (BSAC guidelines); format: cell-based; settings: Staphylococcus aureus
# Experimental: as §1, §6, §7, §8, §2, §9, §10, §3, §4, §5
# [17] = replicate 1, read-out: Minimum inhibitory concentration (MIC)
# [18] = replicate 2, read-out: Minimum inhibitory concentration (MIC)
# [19] = replicate 3, read-out: Minimum inhibitory concentration (MIC)
smiles,measurement,setting,value
"Clc1ccccc1C(c1ccccc1)(c1ccccc1)n1ccnc1 [Clotrimazole, 1-[(2-chlorophenyl)diphenylmethyl]-1H-imidazole]",activity against strains of Staphylococci and Enterococci with reduced susceptibility to vancomycin,[1],good activity; also recorded: capable of inhibiting the growth
same,activity against Gram-negative organisms,Gram-negative organisms,no significant activity
same,concentration in the stratum corneum,[2],100 mcg/cm3
same,concentration in the stratum reticulare,[2],0.5-1 mcg/cm3
same,concentration in the subcutis,[2],0.1 mcg/cm3
same,MIC,[3]; [17],6.5 µg/mL
same,MIC,[3]; [18],> 6 µg/mL
same,MIC,[3]; [19],> 6 µg/mL
same,MIC,[4]; [17],1.5 µg/mL
same,MIC,[4]; [18],3.5 µg/mL
same,MIC,[4]; [19],3 µg/mL
same,MIC,"[5]; ESBL700603, K. pneumoniae ESBL 700603, replicate 1, read-out: Minimum inhibitory concentration (MIC)",> 10 µg/mL
same,MIC,"[5]; ESBL700603, K. pneumoniae ESBL 700603, replicate 2, read-out: Minimum inhibitory concentration (MIC)",> 6 µg/mL
same,MIC,"[5]; ESBL700603, K. pneumoniae ESBL 700603, replicate 3, read-out: Minimum inhibitory concentration (MIC)",> 6 µg/mL
same,MIC,"[6]; ATCC1228, S. epidermidis ATCC 1228, replicate 1, read-out: Minimum inhibitory concentration (MIC)",3 µg/mL
same,MIC,"[6]; ATCC1228, S. epidermidis ATCC 1228, replicate 2, read-out: Minimum inhibitory concentration (MIC)",3 µg/mL
same,MIC,"[6]; ATCC1228, S. epidermidis ATCC 1228, replicate 3, read-out: Minimum inhibitory concentration (MIC)",2.5 µg/mL
same,MIC,"[7]; NCTC10662, P. aeruginosa NCTC 10662, replicate 1, read-out: Minimum inhibitory concentration (MIC)",> 10 µg/mL
same,MIC,"[7]; NCTC10662, P. aeruginosa NCTC 10662, replicate 2, read-out: Minimum inhibitory concentration (MIC)",> 6 µg/mL
same,MIC,"[7]; NCTC10662, P. aeruginosa NCTC 10662, replicate 3, read-out: Minimum inhibitory concentration (MIC)",> 6 µg/mL
same,MIC,"[8]; NCTC10418, E. coli NCTC 10418, replicate 1, read-out: Minimum inhibitory concentration (MIC)",> 10 µg/mL
same,MIC,"[8]; NCTC10418, E. coli NCTC 10418, replicate 2, read-out: Minimum inhibitory concentration (MIC)",> 6 µg/mL
same,MIC,"[8]; NCTC10418, E. coli NCTC 10418, replicate 3, read-out: Minimum inhibitory concentration (MIC)",> 6 µg/mL
same,MIC,[9]; [17],1.5 µg/mL
same,MIC,[9]; [18],2.5 µg/mL
same,MIC,[9]; [19],2.5 µg/mL
same,MIC,[10]; [17],3 µg/mL
same,MIC,[10]; [18],4.5 µg/mL
same,MIC,[10]; [19],5 µg/mL
same,MIC,"[11]; E. faecium (VRE) NCTC 7171, replicate 1, read-out: Minimum inhibitory concentration (MIC)",4 µg/mL
same,MIC,"[11]; E. faecium (VRE) NCTC 7171, replicate 2, read-out: Minimum inhibitory concentration (MIC)",6 µg/mL
same,MIC,"[11]; E. faecium (VRE) NCTC 7171, replicate 3, read-out: Minimum inhibitory concentration (MIC)",> 6 µg/mL
same,MIC,"[12]; E. faecium (VRE) E15 VanA ATCC 4147, replicate 1, read-out: Minimum inhibitory concentration (MIC)",2.5 µg/mL
same,MIC,"[12]; E. faecium (VRE) E15 VanA ATCC 4147, replicate 2, read-out: Minimum inhibitory concentration (MIC)",4 µg/mL
same,MIC,"[12]; E. faecium (VRE) E15 VanA ATCC 4147, replicate 3, read-out: Minimum inhibitory concentration (MIC)",4.5 µg/mL
same,MIC,"[13]; E. gallinarum (VRE) E1 NCTC 12359 VanC1, replicate 1, read-out: Minimum inhibitory concentration (MIC)",4 µg/mL
same,MIC,"[13]; E. gallinarum (VRE) E1 NCTC 12359 VanC1, replicate 2, read-out: Minimum inhibitory concentration (MIC)",6 µg/mL
same,MIC,"[13]; E. gallinarum (VRE) E1 NCTC 12359 VanC1, replicate 3, read-out: Minimum inhibitory concentration (MIC)",> 6 µg/mL
same,MIC,[14]; [17],1.5 µg/mL
same,MIC,[14]; [18],3.5 µg/mL
same,MIC,[14]; [19],3.5 µg/mL
same,MIC,"[15]; ATCC19606, Acinetobacter Baumannii ATCC 19606, replicate 1, read-out: Minimum inhibitory concentration (MIC)",> 10 µg/mL
same,MIC,"[15]; ATCC19606, Acinetobacter Baumannii ATCC 19606, replicate 2, read-out: Minimum inhibitory concentration (MIC)",> 6 µg/mL
same,MIC,"[15]; ATCC19606, Acinetobacter Baumannii ATCC 19606, replicate 3, read-out: Minimum inhibitory concentration (MIC)",> 6 µg/mL
same,MIC,[16]; [17],1.5 µg/mL
same,MIC,[16]; [18],3 µg/mL
same,MIC,[16]; [19],2.5 µg/mL
